{
  "source": "paper PMC4327855",
  "about": "(Science signaling, 2014)",
  "target": "T1, TPC1 (Strongylocentrotus purpuratus, UniProt D1J6X7)",
  "T1 sequence (D1J6X7 1-881)": "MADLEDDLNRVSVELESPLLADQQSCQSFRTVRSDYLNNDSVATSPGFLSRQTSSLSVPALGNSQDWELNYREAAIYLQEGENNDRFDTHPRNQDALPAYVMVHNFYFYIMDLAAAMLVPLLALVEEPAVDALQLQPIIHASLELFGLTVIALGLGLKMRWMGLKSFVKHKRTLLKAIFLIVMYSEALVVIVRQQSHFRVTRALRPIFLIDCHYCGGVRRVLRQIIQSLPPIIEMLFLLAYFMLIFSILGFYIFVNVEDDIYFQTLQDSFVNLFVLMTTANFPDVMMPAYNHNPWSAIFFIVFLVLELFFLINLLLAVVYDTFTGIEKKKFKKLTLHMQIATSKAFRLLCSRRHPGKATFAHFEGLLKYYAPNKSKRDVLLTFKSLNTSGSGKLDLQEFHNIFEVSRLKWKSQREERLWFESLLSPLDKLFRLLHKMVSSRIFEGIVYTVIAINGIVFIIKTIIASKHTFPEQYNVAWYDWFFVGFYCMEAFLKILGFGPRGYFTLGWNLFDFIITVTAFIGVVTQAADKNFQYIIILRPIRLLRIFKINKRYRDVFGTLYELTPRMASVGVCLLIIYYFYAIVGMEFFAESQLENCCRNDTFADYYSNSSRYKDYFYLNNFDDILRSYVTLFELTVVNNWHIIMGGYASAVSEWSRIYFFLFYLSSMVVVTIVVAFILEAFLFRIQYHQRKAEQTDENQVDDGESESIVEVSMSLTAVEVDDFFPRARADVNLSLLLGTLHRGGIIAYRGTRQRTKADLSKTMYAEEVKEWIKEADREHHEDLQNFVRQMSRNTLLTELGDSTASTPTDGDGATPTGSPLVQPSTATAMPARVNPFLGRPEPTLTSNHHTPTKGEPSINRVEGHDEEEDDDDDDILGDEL",
  "assay": "inhibition of NAADP-evoked Ca2+ signals",
  "assay_type": "cell-based",
  "data": [
    {"smiles": "COC(=O)C1=C(C)NC(C)=C(C(=O)OC)C1c1ccccc1[N+](=O)[O-]", "note": "[nifedipine]", "values": [
      {"measurement": "IC50", "value": 4, "unit": "µM"}
    ]}
  ]
}
